{
  "source": "patent US20190255175A1",
  "about": "“ACTIVATION OF TRPA1+ NOCICEPTORS IN THE VAGUS NERVE ATTENUATES SYSTEMIC INFLAMMATION” (THE FEINSTEIN INSTITUTE FOR MEDICAL RESEARCH, priority 2018, published 2019)",
  "key": {"[1]": {"test_system": "sensory nodose ganglion neurons", "assay": "Calcium influx (fluorescence) in sensory nodose ganglion neurons from VGlut2-GCaMP3 mice", "assay_type": "cell-based", "settings": "IL-1β 20 μg/ml; 6 out of 332 neurons", "procedure": "Using patch clamp recordings, IL-1β responses were recorded in nodose ganglion neurons. Application of IL-1β (20 μg/ml) induced calcium influx as indicated by increase of fluorescence in 6 out of 332 (1.8%) sensory nodose ganglion neurons from VGlut2-GCaMP3 mice. Next, whole-cell patch clamp recordings were carried out on the same neurons that responded to IL-1β in calcium influx analysis. When the membrane potential was held at −65 mV, bath application of IL-1β (20 μg/ml) produced slow inward currents in 4 out of 332 (1.2%) nodose neurons. The amplitude of IL-1β induced currents are 108±23 pA (n=4). […] In current-clamp mode, IL-1β reduced action potential threshold from −25±2 mV to −31±3 mV (n=4). […] To further determine the potential interaction of TRPA1 with IL-1β, nodose ganglion neurons from TRPA1 KO mice were examined in a culture system. […] IL1R1 co-localizes with TRPA1 on nodose ganglion neurons, as was determined using immunohistochemical staining."}, "[2]": {"assay": "IL-1β induced inflammation: serum and spleen cytokines", "assay_type": "in vivo", "settings": "TRPA1 KO mice; after IL-1β administration; 3 hours", "procedure": "Mice were injected with 3.2 μg/kg IL-1β ip or saline. Three hours later the mice were euthanized, and blood, spleen, and two brain regions collected. Blood was collected by cardiac puncture. To obtain serum from these samples, blood was allowed to clot for approximately 45 min to 1 h. The blood was then spun at 5,000 rpm for 10 min and 10,000 For 2 min. Supernatants (serum) were collected and stored at −20° C. prior to use. The spleen was homogenized using a bullet blender homogenizer (Next Advance, Averill Park, N.Y., USA) and the recommended bead homogenization kit and protocol in a 4° C. walk-in refrigerator. The homogenized sample was then spun down at 15,000 rpm for 10 min with the supernatants collected and stored at −20° C. Splenic protein level was measured using the Bradford assay. IL-6, IL-1β, KC/Gro (CXCL1), and IL-1β for both serum and spleen were measured on a custom mouse inflammatory electrochemiluminescent kit (Meso Scale Discovery, Gaithersburg, Md., USA) according to manufacturer's recommendations. The brain stem region was collected on ice, using a binocular dissection microscope and placed in the same tube. Brain regions were snap frozen on dry ice and transferred to storage at −80° C.\nThe serum and splenic tissue of these mice were then analyzed for known downstream signaling molecules of IL-1β, IL-6, IL-1β and KC/GRO (CXCL1)."}},
  "data": [
    {"substance": "IL-1β: interleukin 1β; recombinant human IL-1β for nerve recordings, murine (rmIL-1β) for thermoregulation", "values": [
      {"measurement": "Neurons showing calcium influx (increase of fluorescence)", "setting": "[1]", "result": 1.8, "unit": "%"},
      {"measurement": "IL-6, IL-1β and KC/GRO (CXCL1) in serum and spleen", "setting": "[2]", "result": "further increases"}
    ]}
  ]
}
